Article PMC4627230, “Identification of TAX2 peptide as a new unpredicted anti-cancer agent” (Oncotarget, 2015)

Legend:
[1] = system: immobilized TSP-1 (thrombospondin from human platelets); assay: ELISA binding of biotin-labeled peptides to immobilized TSP-1; conditions: biotin-labeled peptide 10 μg/mL, 3 h, room temperature, 0.5% BSA; absorbance 450 nm; n = 3 in triplicate
Procedure: Microtiter plates (Nunc, ThermoFisher Scientific, Courtaboeuf, France) were coated overnight at 4°C with 0.5 μg TSP-1 in sodium carbonate-bicarbonate (BupH) buffer (Thermo Fisher Scientific). Plates were washed with PBS 0.1% BSA (Sigma-Aldrich) and non-specific sites were saturated during 30 min using 1% (w/v) BSA in BupH buffer. Biotin-labeled peptide (10 μg/mL, determined after dose-response assay from 0.01 to 100 μg/mL) was added in buffer containing 0.5% (w/v) BSA and incubated for 3 h at room temperature. Non-labeled peptide (0.001 to 5 mg/mL) was used as selective competitor. Plates were washed with PBS containing 0.1% (w/v) BSA and treated for 30 min with mouse anti-biotin antibody. Bound antibody was quantified using the mouse IgG Elite Vectastain ABC kit (Vector Laboratories) followed by incubation with 1-Step Turbo TMB substrate as a chromogen (ThermoFisher Scientific). The reaction was stopped with 0.5 M H2SO4 and absorbance was read at 450 nm.

TSP-1 binding to FGF-2 = assay: Co-immunoprecipitation TSP-1 with FGF-2; assay type: cell-based, human; conditions: HUVECs, 100 μM; conditioned media
Procedure: (§1) Protein lysates prepared in ice-cold lysis buffer or conditioned media were subjected to immunoprecipitation assay using the Pierce Co-IP kit (Thermo Fisher Scientific) according to the manufacturer's protocol. 10 μg of antibody (anti CD47, anti-CD36, anti-FGF2, anti-VEGF, anti-β1 integrin and anti-LRP1 heavy chain) or non-specific IgGs were incubated with the delivered resin and covalently coupled. The antibody-coupled resin was incubated with whole HUVEC protein lysate overnight at 4°C under gentle agitation (no cross-linker was used to stabilize protein complexes before HUVEC lysis). Then the resin was washed and the protein complexes bound to the antibody were eluted. Immunoprecipitated protein complexes were solubilized under denaturing and reducing conditions, heated to 100°C for 5 min and analyzed by immunoblotting as described above. […]
(§2) receptors. HUVECs were treated with TAX2 (100 μM) or scrambled peptide (Ctrl, 100 μM). FGF-2 and VEGF were immunoprecipitated from conditioned media using anti-FGF-2 (clone C-18) and anti-VEGF (clone C-1), respectively. β1 integrin and LRP-1 were immunoprecipitated from total protein lysates using anti-β1 integrin (clone BV7) and anti-LRP-1 heavy chain (clone 8G1), respectively. […] Histogram represents the quantification of relative ligand-bound TSP-1 under TAX2 treatment as compared to control. […]

[2] = system: TSP-1 binding to β1 integrin; assay: Co-immunoprecipitation TSP-1 with β1 integrin; assay type: cell-based, human; conditions: HUVECs, 100 μM; total protein lysates
Procedure: as §1, §2

TSP-1 binding to LRP-1 = assay: Co-immunoprecipitation TSP-1 with LRP-1; assay type: cell-based, human; conditions: HUVECs, 100 μM; total protein lysates
Procedure: as §1, §2

HUVECs = assay: Endothelial tube formation assay on matrigel; assay type: cell-based, human
Procedure: Figure 2 TAX2 peptide impairs endothelial cell migration and inhibits angiogenesis in vitro and ex vivo A. HUVECs were treated with TAX2 (100 μM) or scrambled peptide (Ctrl, 100 μM). CD47 was immunoprecipitated from total protein lysates using anti-CD47 (clone B6H12) and non-specific IgGs were used as a negative control. Immunocomplexes were then submitted to SDS-PAGE and immunoblotted (IB) using specific TSP-1 and CD47 antibodies. Histogram represents the quantification of co-immunoprecipitated TSP-1 relative to immunoprecipitated CD47. Results are expressed as percentage compared to control (n = 3 separate experiments, t test). B. HUVECs (1 × 10^5 per well) were grown at confluence and then cell proliferation was inhibited by incubating with 10 μg/mL mitomycin C for 2 h. Migration assays were performed for 9 h with or without TAX2 peptide (100 μM), as described in Materials and Methods. Photographs (100×) were taken every 3 h. Graph represents the quantification of the wounded area. Each value is the mean of 3 independent experiments, each performed in quadruplicate. C. HUVECs (5 × 10^4 per well) were plated into the upper compartment of a Transwell membrane and incubated for 12 h in EGM-2 in the presence of 100 μM TAX2 peptide. Hoechst-stained migrating cells attached on outside surface of the top chamber were photographed (20× objective) and counted. Results are expressed as percentage of migrated cells as compared to control. Each value represents the mean of 5 independent experiments, each performed in triplicate.*p < 0.05, compared to control; t test. D. HUVECs (5 × 10^4) were cultured on matrigel layers in control conditions (Ctrl) or in the presence of TAX2. After 8 h incubation, HUVEC tube-like formation was observed on an inverted microscope (40×) and quantification of network total length was done using ImageJ software. Numeration of branching points, tubes and nodal structures was conducted using S.CORE system. Data are expressed as the mean ± SE from at least 3 independent experiments, each performed in triplicate. […] F. Total RNAs were purified from HUVECs transfected with non-silencing siRNA (siCtrl) or siRNA targeting TSP-1 (siTSP-1). The transcriptional level of TSP-1 was assessed by RT-PCR and normalized to β-actin. […] After 6 days incubation in the presence of 100 μM TAX2 or control peptide (Ctrl), images were taken with an inverted microscope (40×) and microvessel area was quantified using ImageJ software. […]
Figure 3 Anti-angiogenic properties of TAX2 are mediated by TSP-1 binding to CD36 A. Expression of CD36 in HUVECs was assessed by immunoblotting (left panel) and immunofluorescence staining (right panel, red). […] The presence of TSP-1 in immunocomplexes was quantified by densitometric analysis relative to immunoprecipitated CD36. […]

CEVSQLLKGDAC (disulfide) [TAX2, CD47-derived cyclic disulfide dodecapeptide …]
binding to immobilized TSP-1 [1]: binds to immobilized TSP-1
TSP-1 binding to FGF-2 (TSP-1 binding to FGF-2): does not affect
TSP-1 binding to β1 integrin [2]: does not affect
TSP-1 binding to LRP-1 (TSP-1 binding to LRP-1): does not affect
formation of branching points, capillary tubes and nodal structures (HUVECs; HUVECs on matrigel, 8 h, S.CORE): decreased
inhibition of pseudo-tube network formation (total network length) (HUVECs; HUVECs on matrigel, 8 h, at least 3 experiments in triplicate): 40%
effect on lumen formation under TSP-1 gene silencing (HUVECs; HUVECs transfected with siTSP-1, matrigel, 8 h): wholly abolished
prevention of capillary structure formation in presence of CD36 blocking antibody (HUVECs; HUVECs, 100 μM, 12 h, anti-CD36 blocking antibody, n = 3): wholly reversed
